Measurements published in PubChem BioAssay (NCI).
“And” between values parts separate entries of the source, which are not always exact repeats. Equal values may be shown once.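 Step 1: Grow cells in 96-well plates. Step 2: Expose to compound for 48 hours at 5 concentrations. Step 3: Interpolate endpoints linearly; if unreached, use highest concentration. Here, GI50 denotes the concentration required for 50% inhibition of growth. At the TGI there is no net growth.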

How the values were obtained:
Experiment in all cases: DTP human tumour cell line panel, 48 h
SK-OV-3 ovarian = system: SK-OV-3 ovarian
HCC-2998 colon = system: HCC-2998 colon
MALME-3M melanoma = system: MALME-3M melanoma
786-0 renal = system: 786-0 renal
MOLT-4 leukemia = system: MOLT-4 leukemia
M14 melanoma = system: M14 melanoma
SF-295 CNS = system: SF-295 CNS
ACHN renal = system: ACHN renal
KM12 colon = system: KM12 colon
NCI-H460 lung = system: NCI-H460 lung

SMILES	TGI (SK-OV-3 ovarian)	TGI (HCC-2998 colon)	TGI (MALME-3M melanoma)	TGI (786-0 renal)	TGI (MOLT-4 leukemia)	TGI (M14 melanoma)	TGI (SF-295 CNS)	TGI (ACHN renal)	TGI (KM12 colon)	TGI (NCI-H460 lung)	GI50 (SK-OV-3 ovarian)	GI50 (HCC-2998 colon)	GI50 (MALME-3M melanoma)	GI50 (786-0 renal)	GI50 (MOLT-4 leukemia)	GI50 (M14 melanoma)	GI50 (ACHN renal)	GI50 (KM12 colon)	GI50 (NCI-H460 lung)	GI50 (SF-295 CNS)
CC[C@]1(O)C(=O)OCc2c1cc1n(c2=O)Cc2cc3c(N)cccc3nc2-1	> 100 µM	> 100 µM	> 100 µM	> 100 µM	> 100 µM	> 100 µM	> 100 µM	> 100 µM	> 100 µM	> 100 µM	–	–	–	–	–	–	–	–	–	–
CC1C(=O)OCC2=CCN3CCC(OC(=O)C(C)C1(C)O)C23 (stereo not given)	> 100 µM	> 100 µM	> 100 µM	> 100 µM	> 100 µM	> 100 µM	> 100 µM	> 100 µM	> 100 µM	> 100 µM	–	–	–	–	–	–	–	–	–	–
COc1ccc(-c2ccc(-c3ccc(C(=N)N)cn3)o2)cc1	21.8 µM	5.71 µM	7.32 µM	18.8 µM	15.5 µM	4.68 µM	–	19.6 µM	15.5 µM	14 µM	10.2 µM	2.45 µM	3.25 µM	6.02 µM	4.4 µM	2.12 µM	6.56 µM	4.41 µM	3.69 µM	–
Cn1c2c(c3ccc(Cl)c(Cl)c31)C(C#N)C1(CCNCC1)NC2=O (stereo not given)	8.97 µM	2.69 µM	3.19 µM	3.36 µM	2.7 µM	3.3 µM	8.1 µM	5.79 µM	3.03 µM	3.79 µM	2.73 µM	1.31 µM	1.42 µM	1.66 µM	1.23 µM	1.54 µM	1.82 µM	1.6 µM	1.71 µM	2.46 µM
NCCCCNc1ccc2c(=O)[nH][nH]c(=O)c2c1	> 100 µM	> 100 µM	> 100 µM	> 100 µM	> 100 µM	> 100 µM	> 100 µM	> 100 µM	> 100 µM	–	–	–	–	–	–	–	–	–	–	–
CCOC(=O)/C=C/C1=C(c2cccs2)c2ccccc2CC1	> 100 µM	64.7 µM	69.7 µM	> 100 µM	–	> 100 µM	> 100 µM	34.5 µM	90 µM	> 100 µM	31.6 µM	28.2 µM	24.8 µM	35.5 µM	–	32 µM	17.1 µM	25.6 µM	31.1 µM	38.5 µM
CN1CC[C@]2(C)c3ccc(O)cc3CC3CCCC1C32C (stereo not given in full)	> 100 µM	> 100 µM	> 100 µM	> 100 µM	> 100 µM	> 100 µM	> 100 µM	> 100 µM	> 100 µM	> 100 µM	–	–	–	–	–	–	–	–	–	–
COc1cc(/C=C2\C(=O)Nc3ccc(N(C)C)cc32)cc(OC)c1OC	30.4 µM	46.4 µM	> 30.2 µM	33.3 µM	> 30.9 µM	–	> 100 µM	98.4 µM	13.2 µM	> 29.1 µM	3.55 µM	8.46 µM	3.23 µM	4.3 µM	2.87 µM	–	4.72 µM	1.69 µM	2.98 µM	3.16 µM
Cc1cccc(C)c1NC(=O)C1C(=O)N(c2c(C)cccc2C)C(=O)/C1=N\NC(N)=S (stereo not given)	–	> 100 µM	> 100 µM	> 100 µM	> 100 µM	> 100 µM	> 100 µM	> 100 µM	> 100 µM	> 100 µM	–	–	–	–	–	–	–	–	–	–
C/C=C/C=C/C=C/C=C/C(=O)O	> 100 µM	> 100 µM	> 100 µM	> 100 µM	> 100 µM	> 100 µM	> 100 µM	> 100 µM	> 100 µM	> 100 µM	–	–	–	–	–	–	–	–	–	–
CCOC(=O)/C=C1\CCCC12OCCO2	> 100 µM	> 100 µM	> 100 µM	> 100 µM	> 100 µM	> 100 µM	–	> 100 µM	> 100 µM	> 100 µM	–	–	–	–	–	–	–	–	–	–
COc1ccc(N2C(=O)[C@H]3CC(C)c4c([nH]c5ccccc45)[C@H]3C2=O)cc1 (stereo not given in full)	23.6 µM	69 µM	33.9 µM	16.4 µM	49.4 µM	39.9 µM	7.71 µM	> 76.8 µM	63.1 µM	41.9 µM	–	–	–	–	–	–	–	–	–	–
COc1ccccc1/C=C/C(=O)c1ccccc1	> 100 µM	31.8 µM	31.6 µM	32.8 µM	> 36.6 µM	27 µM	30.9 µM	15.2 µM	14.3 µM	31.9 µM	33.3 µM	17 µM	15.4 µM	18.3 µM	2.92 µM	12.2 µM	5.04 µM	4.04 µM	13.7 µM	14.8 µM
N#CCCN(CCC#N)c1ccc(C(Sc2ccccc2)C(NC(=O)c2cc([N+](=O)[O-])ccc2Cl)C(=O)Sc2ccccc2)cc1 (stereo not given)	13.2 µM	19.7 µM	22 µM	3.95 µM	2.56 µM and 2.95 µM	4.07 µM	13.1 µM	16.3 µM	–	16.8 µM	7.8 µM	–	–	–	0.565 µM	1.61 µM	2.81 µM	–	–	–
CC[O-].CC[O-].O=S(=O)([O-])c1ccc([O-])c2ncccc12.O=S(=O)([O-])c1ccc([O-])c2ncccc12.[Ti+4]	> 100 µM	> 100 µM	> 100 µM	> 100 µM	> 100 µM	> 100 µM	> 100 µM	> 100 µM	> 100 µM	–	> 100 µM	68.2 µM	> 100 µM	49 µM	37.2 µM	63.8 µM	59.1 µM	96.5 µM	–	> 100 µM
CCN(CC)C(=S)SC	> 100 µM	> 100 µM	> 100 µM	> 100 µM	> 100 µM	> 100 µM	> 100 µM	> 100 µM	–	> 100 µM	–	–	–	–	–	–	–	–	–	–
CC(=O)NC(CCCCNC(=O)NCCCl)C(=O)NCc1ccccc1 (stereo not given)	–	> 100 µM	> 100 µM	> 100 µM	> 100 µM	> 100 µM	> 100 µM	> 100 µM	> 100 µM	> 100 µM	–	–	–	–	–	–	–	–	–	–
